According to patent US7345033B2, “Carbamoyl-and thiocarbamoyl-phosphonates and pharmaceutical compositions comprising them” (Yissum Research Development Company of the Hebrew …, priority 2003, dated 2008):
Entries after “also recorded” stand apart in the source; their conditions may differ. Read-outs that look alike come from different tables or passages of the source.

Columns and labels:
[1] = test system: Human prostate tumor cells DU145, PC3 or LMCap; assay: Orthotopic prostate tumor model; type: in vivo, mice; details: 50 mg/kg IP daily for 5 weeks, vs untreated control
Description: Human prostate tumor cells DU145, PC3 or LMCap transfected with a luciferase gene were injected orthotopically into the prostate of male mice (2×10^6 cells/mouse). […] The mice were monitored for local tumor growth and metastasis formation with a cooled charged coupled device camera (CCCD) sensitive to photons, weekly, starting 14 days after tumor implantation. The emitted photons are converted into a digitalized image proportional to the amount of photons emitted by the tumor cell upon exposure to luciferin.

[2] = target: T1, recombinant MMP-2 (Homo sapiens, UniProt P08253); assay: MMP inhibitory potency in vitro, succinylated-gelatin colorimetric assay; type: biochemical
T1 construct: purchased
T1 sequence (P08253 110-660): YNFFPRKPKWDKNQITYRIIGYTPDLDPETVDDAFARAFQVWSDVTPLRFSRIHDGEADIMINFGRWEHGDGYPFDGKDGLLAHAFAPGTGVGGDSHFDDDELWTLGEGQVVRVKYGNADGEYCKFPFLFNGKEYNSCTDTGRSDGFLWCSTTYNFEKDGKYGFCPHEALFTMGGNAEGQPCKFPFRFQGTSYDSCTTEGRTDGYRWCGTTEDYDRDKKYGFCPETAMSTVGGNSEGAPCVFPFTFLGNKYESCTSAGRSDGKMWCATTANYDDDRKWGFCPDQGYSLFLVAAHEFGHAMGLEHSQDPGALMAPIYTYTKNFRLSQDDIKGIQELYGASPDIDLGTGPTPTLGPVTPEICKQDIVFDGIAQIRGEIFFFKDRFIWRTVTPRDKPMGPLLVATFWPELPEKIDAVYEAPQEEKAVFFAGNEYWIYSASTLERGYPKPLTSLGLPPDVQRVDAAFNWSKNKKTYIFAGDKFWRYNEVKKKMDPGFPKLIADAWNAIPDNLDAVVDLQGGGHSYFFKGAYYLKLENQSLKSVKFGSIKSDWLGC
Description: (§1) Determination of MMP Inhibitory Potency (IC50 Values) in vitro
(§2) The commercially available recombinant MMP-2 and MMP-9 enzymes were incubated with succinylated-gelatin at four different concentrations for 3 h. The examined compounds were added at four to six different concentrations to the recombinant enzymes and the inhibitory potencies were expressed in a colorimetric change measured by an ELISA reader. The inhibitory activity (IC50) was calculated from the kinetic data obtained.

[3] = target: T2, recombinant MMP-9 (Homo sapiens, UniProt P14780); assay: as above; type: biochemical
T2 construct: purchased
T2 sequence (P14780 94-707, species assumed): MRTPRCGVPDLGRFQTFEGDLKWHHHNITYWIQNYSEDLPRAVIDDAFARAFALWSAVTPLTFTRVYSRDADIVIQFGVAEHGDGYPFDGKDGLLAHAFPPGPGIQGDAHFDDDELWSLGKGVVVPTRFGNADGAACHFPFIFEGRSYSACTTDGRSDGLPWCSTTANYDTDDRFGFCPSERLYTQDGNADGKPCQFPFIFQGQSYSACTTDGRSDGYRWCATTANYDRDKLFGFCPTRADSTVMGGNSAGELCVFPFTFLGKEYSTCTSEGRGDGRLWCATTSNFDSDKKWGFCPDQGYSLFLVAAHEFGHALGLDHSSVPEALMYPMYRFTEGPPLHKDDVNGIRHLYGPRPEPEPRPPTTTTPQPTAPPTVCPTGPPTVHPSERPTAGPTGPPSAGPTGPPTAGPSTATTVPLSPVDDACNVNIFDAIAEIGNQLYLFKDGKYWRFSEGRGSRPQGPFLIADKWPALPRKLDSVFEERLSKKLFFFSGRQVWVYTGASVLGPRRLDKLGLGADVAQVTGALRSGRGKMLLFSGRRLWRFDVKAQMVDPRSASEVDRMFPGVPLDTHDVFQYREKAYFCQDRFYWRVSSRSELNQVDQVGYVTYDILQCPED
Description: as §1, §2

[4] = test system: cancer cells; assay: Matrigel chemoinvasion assay (Boyden chambers); type: cell-based; details: 6 h, read-out: Chemoinvasion % inhibition at 50 μM
Text: Matrigel Chemoinvasion Assay
This assay measures in vitro the potency of the compounds to repress the invasiveness of cancer cells, by inhibiting the MMPs produced by them. The assay uses a reconstituted basement membrane preparation, which is similar to the natural basement membranes that the tumor cells have to cross, in order to disseminate. The compounds examined have been added to the invasion chambers at various concentrations, and the resulted invasion was compared to untreated preparations.
Description of the of the Matrigel Chemoinvasion Experiment
a) The chemoinvasion assays were performed in Boyden chambers. Matrigel (25 μg) was dried on a polycarbonated filter (PVP free, Nucleopore). Fibroblast conditioned medium (obtained from confluent NIH-3T3 cells cultured in serum free DMEM) is used as the chemoattractant. […] The chambers were incubated in a humidified incubator at 37° C. in 5% CO2/95% air atmosphere for 6 h. The cells, which traversed the Matrigel layer and attached to the lower surface of the filter, were stained with Diff Quick (American Scientific Products) and counted.
The various compounds were examined as potential inhibitors at three concentrations: 100 μM, 50 μM and 10 μM.

[5] = test system: restenosis; assay: Rabbit model of restenosis (balloon injury, hypercholesterolemic); type: in vivo, New Zealand White rabbits; details: IP, total 70 mg/kg in 5 doses on days -1, +1, +4, +6, +8; after 30 days
Description: Rabbit Model of Restenosis
New Zealand White rabbits (Harlan Laboratories, Jerusalem, Israel) weighing 2.5 to 3.5 kg were used in accordance with the guidelines for animal care of the Hebrew University of Jerusalem and National Institutes of Health (USA). Animals were fed an atherogenic diet of 2% cholesterol and 6% peanut oil, starting 30 days before angioplasty. Hypercholesterolemia was ascertained (plasma cholesterol: 1200 mg/dL). Animals were anesthetized by xylazine (7 mg/kg) and ketamine (40 mg/kg). Heparin (200 U/kg), atropine (0.05 mg), and norfloxacin nicotinate (70 mg) were given. […] The control animals received saline. An investigator blinded to the type of experimental group performed the experiments. After euthanasia with pentothal, arteries were perfusion-fixed in situ with 150 mL of 4% formaldehyde solution (pH 7.4), processed for morphometric analysis, and stained with Verhoeff elastin staining, Mayer hematoxylin and eosin, and modified Movat pentachrome. Five animals were used in the experiment and five in the control group.
The marked inhibition of restenosis is unparalleled to other therapeutic modalities in this model (various antiinflammatories or antiproliferative agents). […] It should be noted that the larger lumen in the treatment group was achieved despite the general smaller size of the artery.

[6] = test system: Endothelial cells; assay: Endothelial cell capillary tube formation; type: cell-based; details: read-out: Capillary Formation Inhibition % At 50 μM
Text: Endothelial Cell Capillary Tube Formation
Some of the compounds were examined as to their potency to inhibit capillary formation, which is an in vitro model of angiogenesis, an essential step in the development of primary tumor and metastatic lesions. Endothelial cell migration to the newly formed tumor is the initial phase of angiogenesis, and is dependent on MMP expression. By using this assay that measures endothelial cell tube formation, the effects of some carbamoylphosphonates on angiogenesis at concentrations ranging from 100-5 μM were evaluated.
Description of the Endothelial Cell Capillary Tube Formation Experiment
Endothelial cells are harvested by 1 mM EDTA, and added to a Matrigel layer in a 24 well plate at 50,000 cells per well. After attachment, culture media (1 ml) is added and the plate is incubated as a monolayer culture. The plates are analyzed hourly using Hoffinan optics. This assay is used to evaluate inhibitory factors or stimulatory factors on capillary like structure formation, which may be added into the culture media.

[7] = test system: murine melanoma; assay: Tumor growth and metastasis in vivo, murine melanoma model; set-up: species or system mice; details: Mus musculus, 504 h
Text: Tumor Growth and Metastasis in Animal Models—in vivo Test
The abilities of the novel carbamoylphosphonates to inhibit the formation of metastatic lesions in vivo were examined in the murine melanoma model both by intraperitoneal (IP) and peroral (PO) administration. […] This is especially important, since oral administration is the most convenient one for the patient, especially for long term chronic treatments such as those envisaged for drugs that are the subject of this application.

[8] = target: MMP-8 (Homo sapiens, UniProt P22894); assay: Selectivity towards different MMPs: MMP-8; type: biochemical; details: Table 2
Sequence of MMP-8 (P22894 101-467, species assumed): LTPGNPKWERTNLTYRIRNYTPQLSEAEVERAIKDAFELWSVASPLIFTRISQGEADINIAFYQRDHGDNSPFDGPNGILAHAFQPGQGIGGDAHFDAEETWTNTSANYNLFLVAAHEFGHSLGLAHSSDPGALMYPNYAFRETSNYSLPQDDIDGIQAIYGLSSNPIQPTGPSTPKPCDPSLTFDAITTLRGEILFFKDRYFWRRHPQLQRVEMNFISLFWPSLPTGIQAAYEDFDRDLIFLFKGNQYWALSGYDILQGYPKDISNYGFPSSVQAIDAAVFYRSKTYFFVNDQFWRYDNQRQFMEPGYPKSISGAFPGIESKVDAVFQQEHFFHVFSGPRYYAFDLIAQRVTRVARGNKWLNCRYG

[9] = target: T3, MMP-1 (Homo sapiens, UniProt P03956); assay: Selectivity towards different MMPs: MMP-1; type: biochemical; details: Table 2
T3 sequence (P03956 100-469): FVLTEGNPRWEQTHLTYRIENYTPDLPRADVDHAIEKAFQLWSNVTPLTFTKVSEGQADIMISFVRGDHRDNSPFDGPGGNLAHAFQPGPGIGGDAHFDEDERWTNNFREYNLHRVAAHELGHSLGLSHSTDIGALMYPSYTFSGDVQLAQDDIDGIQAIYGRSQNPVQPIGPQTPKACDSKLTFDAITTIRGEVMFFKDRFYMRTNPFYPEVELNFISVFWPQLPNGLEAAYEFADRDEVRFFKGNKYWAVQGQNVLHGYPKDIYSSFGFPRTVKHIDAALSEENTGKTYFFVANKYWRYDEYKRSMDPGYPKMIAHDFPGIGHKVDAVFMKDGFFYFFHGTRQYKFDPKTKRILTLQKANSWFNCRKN

[10] = target: MMP-3 (Homo sapiens, UniProt P08254); assay: Selectivity towards different MMPs: MMP-3; type: biochemical; details: Table 2
Sequence of MMP-3 (P08254 100-477, species assumed): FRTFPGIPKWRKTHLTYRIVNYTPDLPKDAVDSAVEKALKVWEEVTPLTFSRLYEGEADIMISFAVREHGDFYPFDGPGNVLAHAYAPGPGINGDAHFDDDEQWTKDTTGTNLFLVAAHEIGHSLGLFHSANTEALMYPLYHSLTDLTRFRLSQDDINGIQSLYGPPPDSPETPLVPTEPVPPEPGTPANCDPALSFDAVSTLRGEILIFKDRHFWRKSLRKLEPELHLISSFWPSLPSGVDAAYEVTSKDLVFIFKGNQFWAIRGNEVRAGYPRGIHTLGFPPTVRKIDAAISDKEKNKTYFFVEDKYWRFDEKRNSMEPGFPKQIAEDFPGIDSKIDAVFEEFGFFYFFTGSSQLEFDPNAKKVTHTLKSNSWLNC

[11] = Acute in vivo toxicity in healthy mice; details: daily for two weeks at 50, 250 and 500 mg/kg
Text: Determination of Acute in vivo Toxicity of Representative Carbamoylphosphonates

In the case of N[C@@H]1CCCC[C@@H]1NC(=O)P(=O)(O)O (relative stereo) [Compound 11, N-(cis-2-aminocyclohexyl)carbamoylphosphonic acid], the “tumor dissemination (metastatic spread)” value [1] is reported as “significantly lower tumor dissemination”, the “tumor volume (local tumor growth)” value [1] is reported as “significantly lower tumor volume” and the IC50 [2] is reported as 0.06 µM. The IC50 [3] was 20 µM, the inhibition at 50 µM [4] was 62% and the inhibition of restenosis [5] was “significant and marked inhibition of restenosis; also recorded: selective in vivo activity against restenosis”. It also gave an inhibition at 50 µM [6] of 72%, an inhibition in vivo at 50 mg/kg ([7]; ip, read-out: In vivo murine melanoma % reduction IP) of 77% and an inhibition in vivo at 50 mg/kg ([7]; po, read-out: In vivo murine melanoma % reduction PO) of 86%. The IC50 [8] was > 100 µM, the IC50 [9] was > 100 µM and the IC50 [10] was > 100 µM. The toxicity [11] was “devoid of any toxicity even at 10 times the effective dose, namely at 500 mg/kg”.
